# Measurements from US7271278B2, “Application of chromium-amino acid complexes in the treatment of diabetes and other diseases” (The University of Wyoming, priority 2005, dated 2007).
# Key:
# 3T3-adipocytes = assay: 2-deoxy-D-[3H] glucose uptake in 3T3-L1 adipocytes; format: cell-based, mouse
# Method: (§1) The 3T3-L1-pre-adipocytes were obtained from the American Type Culture Collection and were propagated at 37° C. in DMEM with 10% newborn calf serum plus 50 U/ml penicillin and 50 μg/ml streptomycin in an incubator under a humidified atmosphere of 5% CO2/95% air. Induction of differentiation was done one day post-confluence. Cells were maintained in differentiation medium of the following composition: DMEM, 10% FBS, […] dexamethasone, 0.5 mM 1-isobutyl-3-methylxanthine (IBMX) and ITS for three days. At day 3, the dexamethasone and IBMX were removed with ITS remaining on the cells for an additional two days. Differentiation was allowed to continue in DMEM supplemented with 10% FBS, ITS and the adipocytes were used between day 9 and 14 post-induction. Prior to the cellular assays, cells were serum starved by overnight incubation in DMEM (containing 0.2% serum).
# Glucose uptake activity was analyzed by measuring the uptake of 2-deoxy-D-[^3H] glucose as described previously (Sakoda et al. (1999) Diabetes, 48:1365-1371). Briefly, confluent 3T3-L1 adipocytes grown in 6-well plates were washed twice with serum-free DMEM and incubated with 2 ml of the same medium at 37° C. for 2 hours. The cells were washed 3 times with Krebs-Ringer-HEPES (KRH) buffer and incubated with 2 ml KRH buffer at 37° C. for 30 minutes. Insulin (6 nM) and/or Cr(pa)3 (0-25 μM) were then added to adipocytes accompanying the procedure of differentiation. Glucose uptake was initiated by the addition of 0.1 ml KRH buffer and 2-deoxy-D-[^3H] glucose (0.2 μCi/ml) and 5 mM glucose as final concentrations. Glucose uptake was terminated by washing the cells three times with cold PBS. The cells were lysed overnight with 1 ml 0.5M NaOH and 0.1% SDS (w/v). The radioactivity retained by the cell lysates was determined by a scintillation counter (Beckmann LC 6000IC) and normalized to protein amount measured with a Micro BCA Protein Assay Kit (Pierce Chemical, Rockford, Ill.).
# insulin receptor beta = assay: Insulin-stimulated IRβ tyrosine phosphorylation, Western blot of 3T3-adipocyte lysates; format: cell-based, mouse
# Method: as §1
# Cells were lysed in RIPA buffer (150 mM NaCl, 0.25% sodium desoxycholate, 1% NP-40, 1 mM EDTA and 50 mM Tris, pH 7.2) containing 2 mM sodium vanadate, 1 μM PMSF, 1 μM sodium fluoride, 1 μg/ml aprotinin, 1 μg/ml leupeptin, and 1 μM pepstatin and sonicated to reduce the sample viscosity. The lysate was centrifuged at 15000×g for 15 minutes at 4° C. and the protein concentration in the supernatant was determined by the bicinchoninic acid method. Equivalent amounts of proteins were boiled in Laemmli sample buffer. Proteins 10-20 μg were separated on 7.5-10% polyacrylamide gel, and electrophoretically transferred to a nitrocellulose membrane. The membranes were incubated for 1 hour at room temperature in blocking buffer (5% w/v non-fat dry milk in tris buffered saline containing 0.1% Tween 20). Membranes were incubated in appropriate phospho-specific primary antibody for insulin receptor beta or Akt at 1:2500 dilutions in the blocking buffer followed by incubation with horseradish peroxidase-coupled secondary antibodies with appropriate specificity. Immunoreactive bands were visualized using enhanced chemiluminescence reagents (Cell Signaling Technology, Inc, Beverly, Mass.). […]
# Akt [1] = assay: Insulin-stimulated Akt (thr308) phosphorylation, Western blot of 3T3-adipocyte lysates; format: cell-based, mouse
# Method: as §1
# Cells were lysed in RIPA buffer (150 mM NaCl, 0.25% sodium desoxycholate, 1% NP-40, 1 mM EDTA and 50 mM Tris, pH 7.2) containing 2 mM sodium vanadate, 1 μM PMSF, 1 μM sodium fluoride, 1 μg/ml aprotinin, 1 μg/ml leupeptin, and 1 μM pepstatin and sonicated to reduce the sample viscosity. The lysate was centrifuged at 15000×g for 15 minutes at 4° C. and the protein concentration in the supernatant was determined by the bicinchoninic acid method. Equivalent amounts of proteins were boiled in Laemmli sample buffer. Proteins 10-20 μg were separated on 7.5-10% polyacrylamide gel, and electrophoretically transferred to a nitrocellulose membrane. The membranes were incubated for 1 hour at room temperature in blocking buffer (5% w/v non-fat dry milk in tris buffered saline containing 0.1% Tween 20). Membranes were incubated in appropriate phospho-specific primary antibody for insulin receptor beta or Akt at 1:2500 dilutions in the blocking buffer followed by incubation with horseradish peroxidase-coupled secondary antibodies with appropriate specificity. Immunoreactive bands were visualized using enhanced chemiluminescence reagents (Cell Signaling Technology, Inc, Beverly, Mass.). Blots were then stripped and re-probed with antibodies directed against insulin receptor β and Akt.
# ob/ob(+/+) mice [2] = assay: Intraperitoneal glucose tolerance test (IPGTT) in ob/ob(+/+) and lean mice; format: in vivo, mouse
# Description: (§2) All animal treatment procedures described in this example were approved by the animal Care and Use Committee at University of Wyoming (Laramie, Wyo.). Homozygous B6.V-lep ob>/J male mice purchased from the Jackson Laboratory (Bar Harbor, Me.) at age 5 weeks were divided randomly into two weight-matched groups, marked as ob/ob(+/+) control and ob/ob(+/+) treatment (n=10). Number, age and weight matched normal C57 mice were used as lean control. All of these animals were maintained on conventional laboratory diet under well-controlled conditions of temperature (22±2° C.), humidity (55±5%) and 12 hour/12 hour light-dark cycle and had ad libitum access to water and standard rodent chow. Rodent diet and tap water were consumed by mice ad libitum. Cr(pa)3 was provided in the drinking water and, on the basis of water intake, was administered to provide an intake of about 150 μg/kg/day corresponding to about 10-15 μg elemental Cr/kg/day for ob/ob(+/+) and lean treatment groups. The dosage of chromium used was based on earlier animal studies reported with chromium picolinate (Cefalu et al. (2002) J. Nutr., 132:1107-1114).
# At the end of the treatment schedule, mice were subjected to the intraperitoneal glucose tolerance test (IPGTT) as described previously (Hintz et al. (2003) Int. J. Obes. Relat. Metab. Disord., 27:1196-1203). Briefly, the mice were fasted for 12 hours and then given intraperitoneal injection of glucose (2 g/kg body weight). Glucose levels were determined in blood drops obtained by clipping the tail of the mice immediately before glucose challenge, as well as at 15, 60 and 120 minutes thereafter. Serum glucose levels were determined using ACCU-CHEK® Advantage® Glucose Analyzer (Roche Diagnostics Corporation, Ind.). Results of IPGTT are also expressed as integrated areas under the curves (AUC) over 120 minutes for glucose calculated by using the WinNonlin software (Pharsight Corporation, Mountain View, Calif.).
# [3] = Body and organ weight of ob/ob(+/+) mice after 6-week treatment; format: in vivo, mouse
# Description: as §2
# All animal treatment procedures described in this study were approved by the Animal Care and Use Committee at University of Wyoming (Laramie, Wyo.). […] Weights of body and other organs were measured with a standard laboratory scale.
# [4] = Deoxyribose degradation assay for generation of hydroxyl radicals; conditions: 1.2 μM
# Method: The potential of chromium compounds to generate hydroxyl radicals in vitro was assessed by the method reported previously (Halliwell et al. (1987) Anal. Biochem., 165:215-219). Briefly, a reaction mixture containing either chromium picolinate or Cr(pa)3, 2-deoxyribose (4 mM), ascorbic acid (100 μM) and hydrogen peroxide (100 μM) in potassium phosphate buffer (pH 7.4, 10 mM) was incubated at 37° C. for 30 minutes. An aliquot of the mixture was treated with 1% (w/v) thiobarbituric acid and 2.8% (w/v) trichloroacetic acid and heated at 90° C. for 10 minutes, rapidly cooled and the amount of chromogen formed in the sample was measured by its absorption at 532 nm. Ferric-EDTA (100 μM) was used as a positive control.
# ob/ob(+/+) mice [5] = assay: Plasma/serum lipids (total cholesterol, HDL) in obese mice; format: in vivo, mouse
# Method: Specifically, mice were treated with Cr(pa)3 at 150 μg/kg/day for six weeks. Cholesterol levels were determined by using a kit from Equal Diagnostics (Exton, Pa.) following the manufacturer's protocol.
# (§3) All animal treatment procedures described in this study were approved by the Animal Care and Use Committee at University of Wyoming (Laramie, Wyo.). Homozygous B6.Vlep/J male mice purchased from the Jackson Laboratory (Bar Harbor, Me.) at age 5 weeks were divided randomly into two weight-matched groups, marked as ob/ob(+/+) control and ob/ob(+/+) treatment (n=12). Number and age-matched normal C57 mice were used as lean control. All animals were maintained on conventional laboratory diet under well-controlled conditions of temperature (22±2° C.), humidity (55±5%) and 12 hours/12 hours light-dark cycle and had ad libitum access to water and standard rodent chow. Cr(D-Phe)3 was provided in the drinking water and, on the basis of water intake, was administered to provide an intake of about 150 μg/kg/day corresponding to about 10-15 μg elemental Cr/kg/day) for ob/ob(+/+) and lean treatment groups. […] The livers of these mice were frozen in liquid nitrogen immediately and stored at −80° C. until use. Blood was collected from the heart, and the serum was extracted by centrifuging the blood at 1000 g at 4° C. and stored at −80° C. Weights of body and other organs were measured with a standard laboratory scale.
# Serum levels of total cholesterol, high-density-lipoprotein (HDL) and triglycerides were measured using commercial kits (from Equal Diagnostics, Exton, Pa.) and SpectraMax 340PC^384 Microplate Reader System (Molecular Device, Sunnyvale, Calif.).
# ob/ob(+/+) mice [6] = assay: Insulin-challenge test in ob/ob(+/+) and lean mice; format: in vivo, mouse; conditions: vs vehicle-treated group
# Description: as §3, with “Blood was collected from the heart, and the serum was extracted by centrifuging the blood at 1000 g at 4° C. and stored at −80° C.” left out
# At the end of the treatment schedule, mice were given intraperitoneal injections of insulin (1 U/kg body weight). Blood glucose levels were determined by the tail-clip method at different time points as described hereinabove.
# Akt [7] = assay: Hepatic Akt and insulin receptor phosphorylation, Western blot of liver homogenates; format: in vivo, mouse; conditions: obese mice
# Description: as §3
# Liver tissues lysates were subjected to Western blot analysis as described hereinabove using phospho specific antibodies against Akt. Blots were then stripped and re-probed with antibodies directed against antibodies directed at the total protein.
# ob/ob(+/+) mice [8] = assay: Lipid-peroxidation (malondialdehyde) and protein carbonyl in liver homogenate of treated mice; format: in vivo, mouse; conditions: obese mice, 150 μg/kg/day 6 weeks, vs untreated obese
# Description: All animal treatment procedures described in this study were approved by the Animal Care and Use Committee at University of Wyoming (Laramie, Wyo.). Homozygous B6.Vlep/J male mice purchased from the Jackson Laboratory (Bar Harbor, Me.) at age 5 weeks were divided randomly into two weight-matched groups, marked as ob/ob(+/+) control and ob/ob(+/+) treatment (n=12). Number and age-matched normal C57 mice were used as lean control. All animals were maintained on conventional laboratory diet under well-controlled conditions of temperature (22±2° C.), humidity (55±5%) and 12 hours/12 hours light-dark cycle and had ad libitum access to water and standard rodent chow. […] Weights of body and other organs were measured with a standard laboratory scale.
# The end product of lipid-peroxidation, namely malondialdehyde (MDA), was estimated in the liver tissue homogenates by the colorimetric kit (Bioxytech LPO-586, Portland, Oreg.) using 1,1,3,3-tetra-ethoxypropane as a standard according to the manufacturer's specifications. This assay is based on the reaction of a chromogenic reagent N-methyl-2-phenylindole with MDA at 45° C. which yields a stable chromophore with absorbance maxima at 586 nm. […]
# [9] = In vitro lipid-peroxidation of rat brain homogenate stimulated by hydrogen peroxide and ascorbate; format: biochemical; conditions: rat-brain homogenate 10% w/v, hydrogen peroxide 1 mM, ascorbate 1 mM, 30 min; concentration-dependent
# Method: The end product of lipid-peroxidation, namely malondialdehyde (MDA), was estimated in the liver tissue homogenates by the colorimetric kit (Bioxytech LPO-586, Portland, Oreg.) using 1,1,3,3-tetra-ethoxypropane as a standard according to the manufacturer's specifications. This assay is based on the reaction of a chromogenic reagent N-methyl-2-phenylindole with MDA at 45° C. which yields a stable chromophore with absorbance maxima at 586 nm. Ability of Cr(D-Phe)3 to inhibit in vitro lipid-peroxidation was assessed in rat-brain homogenates (10% w/v) by incubating Cr(D-Phe)3 in the presence of hydrogen peroxide (1 mM) and ascorbic acid (1 mM) for 30 min at 37° C. followed by measuring MDA as described previously (Sreejayan et al. (1994) J. Pharm. Pharmacol., 46:1013-1016).
# pUC19 DNA = assay: Ascorbate-stimulated cleavage of pUC19 DNA; conditions: 1.2 μM, ascorbic acid, pUC19 DNA 38 μM
# Method: DNA cleavage-stimulated by chromium compounds was assessed as described previously (Speetjens et al. (1999) Chem. Res. Toxicol., 12:483-487). All solutions were prepared using Chelex-100 treated water to remove any traces of metal ions. […] Reactions were allowed to proceed 60 minutes at room temperature followed by quenching with 2 μl of nucleic acid sample loading buffer. The mixtures were loaded directly onto a 1% agarose gel pre-stained by ethidium bromide and electrophoresed at 60 V. The gels were photographed on a UV transilluminator.
smiles,measurement,setting,value
"N[C@H](Cc1ccccc1)C(=O)O.[Cr+3] [Cr(pa)3, chromium (III) D-phenylalanine]",insulin-stimulated glucose uptake,"3T3-adipocytes; Cr(pa)3 5 and 25 μM, insulin 6 nM, vs insulin-stimulated untreated cells",significantly augmented
same,basal glucose uptake,3T3-adipocytes; absence of insulin,did not have any effect
same,protein levels of insulin receptor,insulin receptor beta; 3T3-adipocytes,does not increase
same,IRβ phosphorylation induced by submaximal insulin,insulin receptor beta; insulin 1 nM,not altered
same,insulin-stimulated IRβ tyrosine phosphorylation,"insulin receptor beta; pretreatment for various time or at different concentrations, insulin 10 nM 10 minutes",not altered
same,phosphorylation levels of Akt,"Akt [1]; Cr(pa)3 alone, absence of insulin",did not alter
same,stimulation of insulin-stimulated Akt phosphorylation compared to chromium picolinate,Akt [1]; equimolar concentrations,greater stimulation
same,in vitro Akt phosphorylation among various chromium complexes,"Akt [1]; insulin 10 nM, vs Cr(Pic)3, Cr(AcAc)3, Cr(Sal)3, CrCl3",greatest amount
same,insulin-stimulated Akt (thr308) phosphorylation,"Akt [1]; pretreatment, insulin 10 nM, concentration- and time-dependent",further increase
same,"AUC of glucose, lean mice","ob/ob(+/+) mice [2]; lean mice, treated vs untreated",no significant changes
same,serum glucose levels post-glucose-challenge,"ob/ob(+/+) mice [2]; ob/ob(+/+) mice, 150 μg/kg/d 6 weeks, 15 and 60 minutes, vs untreated",significantly lower
same,integrated AUC over 120 minutes of glucose,"ob/ob(+/+) mice [2]; ob/ob(+/+) mice, 150 μg/kg/d 6 weeks, vs untreated",significantly lower
same,difference in body weight,[3]; ob/ob(+/+) mice treated vs untreated,no significant difference
same,"body-mass indices (body, heart, liver, kidney weights)","[3]; obese mice, 150 μg/kg/day six weeks",did not alter
same,degradation of deoxyribose,[4],failed to cause any degradation of deoxyribose
same,serum HDL-cholesterol levels,ob/ob(+/+) mice [5]; 150 μg/kg/day 6 weeks,did not alter
same,total serum cholesterol levels,ob/ob(+/+) mice [5]; 150 μg/kg/day 6 weeks (Example 2),significant lowering
same,plasma cholesterol levels,ob/ob(+/+) mice [5]; 150 μg/kg/day six weeks (Example 1),significantly attenuated
same,"blood glucose level after insulin-challenge, lean mice",ob/ob(+/+) mice [6],failed to further lower the blood glucose level
same,levels of phospho-Akt in liver homogenate,"Akt [7]; oral 150 μg/kg/day 6 weeks, basal",failed to significantly enhance
same,levels of total Akt protein in liver homogenate,Akt [7]; oral treatment,Neither did the treatment alter
same,phosphorylation of insulin-receptors in liver,Akt [7]; same blots reprobed for phosphorylated insulin receptor beta,no changes
same,malondialdehyde (lipid-peroxidation) in liver homogenate,ob/ob(+/+) mice [8],significantly lower
same,protein carbonyl formation in liver homogenate,ob/ob(+/+) mice [8],significantly lower
same,in vitro lipid-peroxidation (malondialdehyde equivalents),[9],inhibited
same,DNA strand breaks (supercoiled to circular nicked pUC19),pUC19 DNA,failed to induce any strand breaks
